From patent US20250366474A1, “USE OF 4,5-DIMETHYLTHIAZOLE IN PROMOTING PLANT GROWTH” (HUAZHONG AGRICULTURAL UNIVERSITY, priority 2024, published 2025)

Assays:
rice seedlings = assay: 4,5-dimethylthiazole seed soaking: rice seedling dry matter mass and chlorophyll content; assay type: in vivo, rice (Heliangyou 332); details: for Root System Biomass / Shoot Part Biomass / Total Biomass / Total Chlorophyll Content: 30 days of seedling cultivation; for Total Chlorophyll Content: leaves; for Root System Relative Value / Shoot Part Relative Value / Total Chlorophyll Content Relative Value / Total Relative Value: 30 days, vs distilled water soaking
Method: 4,5-dimethylthiazole of different weights were dissolved in distilled water to obtain seed soaking agents. Taking seed soaking with distilled water as a control, four seed soaking concentrations (0, 50, 100 and 200 mg/L) were set. Plump and healthy rice seeds (Heliangyou 332) were selected and sterilized with 0.5% sodium hypochlorite for 30 min, and then each seed soaking agent was added in a mass ratio of the seed soaking agent to seed of 1:20. The seeds were soaked in darkness under 28-30° C. condition for 48 h until radicle emergence. The seed soaking solutions were changed every 12 h. Rice substrate soil was loaded 2 cm away from a seedling tray opening, gently compacted, and watered with pure water to be wet. A rice seedling nursery substrate was “rice seedling nursery substrate” purchased from Guangzhou Shengsheng Agriculture Co., Ltd., with main ingredients including peat, vermiculite and yellow mud. Two seeds were sowed in each hole on a substrate surface, covered with the substrate soil again to the seedling tray opening, and watered to be wet. After 30 days of seedling cultivation, nine rice samples were taken from each treatment, divided into shoot parts and root system, which were dried and then weighed; and leaves were taken from another nine rice plants to measure chlorophyll content. […] Regarding the biomass of the shoot parts and the chlorophyll content, the seed soaking concentration 50 mg/L rendered the best effect (Table 2).

[1] = system: hydroponic rice seedlings; assay: Addition of 4,5-dimethylthiazole to hydroponic rice: growth, agronomic traits and nitrogen accumulation; assay type: in vivo, indica (Heliangyou 332) and japonica (Nipponbare); details: for Dry Matter Mass of Rice, Root System / Dry Matter Mass of Rice, Shoot Part / Dry Matter Mass of Rice, Total / Leaf Area / Leaf Length / Leaf Width / Plant Height / Total Root Count: 25 days of cultivation
Method: Five addition concentrations of 4,5-dimethylthiazole (CAS No. 3581-91-7, see FIG. 1 for structural formula) were set, being 0, 5, 10, 20 and 50 mg/L, respectively, and a solvent was a rice nutrient solution. Two rice varieties were indica (Heliangyou 332) and japonica (Nipponbare), respectively. The rice was subjected to normal seed soaking, sowing and cultivation. When grown to one leaf and one tiller, rice seedlings were cultivated with mixed solution. Samples were collected after 25 days of cultivation. 30 plants were sampled from each treatment, where 15 plants were divided into two parts of stems and leaves, and root system, which were dried and weighed, and the other 15 plants were measured for agronomic traits.

Compound: Cc1ncsc1C [4,5-dimethylthiazole]
- Root System Biomass (rice seedlings; seed soaking 50 mg/L): 8.3 mg/plant
- Shoot Part Biomass (rice seedlings; seed soaking 50 mg/L): 80.7 mg/plant
- Total Biomass (rice seedlings; seed soaking 50 mg/L): 89.1 mg/plant
- Total Chlorophyll Content (rice seedlings; seed soaking 50 mg/L): 4.08 mg/g
- Root System Relative Value (rice seedlings; seed soaking 50 mg/L): 52.6%
- Shoot Part Relative Value (rice seedlings; seed soaking 50 mg/L): 32.3%
- Total Chlorophyll Content Relative Value (rice seedlings; seed soaking 50 mg/L): 9.3%
- Total Relative Value (rice seedlings; seed soaking 50 mg/L): 34.0%
- Root System Biomass (rice seedlings; seed soaking 100 mg/L): 8.6 mg/plant
- Shoot Part Biomass (rice seedlings; seed soaking 100 mg/L): 78.4 mg/plant
- Total Biomass (rice seedlings; seed soaking 100 mg/L): 87.1 mg/plant
- Total Chlorophyll Content (rice seedlings; seed soaking 100 mg/L): 3.98 mg/g
- Root System Relative Value (rice seedlings; seed soaking 100 mg/L): 58.2%
- Shoot Part Relative Value (rice seedlings; seed soaking 100 mg/L): 28.5%
- Total Chlorophyll Content Relative Value (rice seedlings; seed soaking 100 mg/L): 6.7%
- Total Relative Value (rice seedlings; seed soaking 100 mg/L): 31.0%
- Root System Biomass (rice seedlings; seed soaking 200 mg/L): 7.8 mg/plant
- Shoot Part Biomass (rice seedlings; seed soaking 200 mg/L): 81.1 mg/plant
- Total Biomass (rice seedlings; seed soaking 200 mg/L): 88.9 mg/plant
- Total Chlorophyll Content (rice seedlings; seed soaking 200 mg/L): 3.99 mg/g
- Root System Relative Value (rice seedlings; seed soaking 200 mg/L): 42.9%
- Shoot Part Relative Value (rice seedlings; seed soaking 200 mg/L): 32.9%
- Total Chlorophyll Content Relative Value (rice seedlings; seed soaking 200 mg/L): 7.0%
- Total Relative Value (rice seedlings; seed soaking 200 mg/L): 33.7%
- effect on biomass of the shoot parts and chlorophyll content, comparison of seed soaking concentrations (rice seedlings; seed soaking concentration 50 mg/L): best effect
- Dry Matter Mass of Rice, Root System ([1]; 5 mg/L): 3.1 mg/plant
- Dry Matter Mass of Rice, Shoot Part ([1]; 5 mg/L): 17.0 mg/plant
- Dry Matter Mass of Rice, Total ([1]; 5 mg/L): 20.1 mg/plant
- Leaf Area ([1]; 5 mg/L): 3.39 cm^2
- Leaf Length ([1]; 5 mg/L): 10.73 cm
- Leaf Width ([1]; 5 mg/L): 0.38 cm
- Plant Height ([1]; 5 mg/L): 16.73 cm
- Total Root Count ([1]; 5 mg/L): 8.0 count/plant
- Dry Matter Mass of Rice, Root System ([1]; 10 mg/L): 4.0 mg/plant
- Dry Matter Mass of Rice, Shoot Part ([1]; 10 mg/L): 24.3 mg/plant
- Dry Matter Mass of Rice, Total ([1]; 10 mg/L): 28.3 mg/plant
- Leaf Area ([1]; 10 mg/L): 3.03 cm^2
- Leaf Length ([1]; 10 mg/L): 10.88 cm
- Leaf Width ([1]; 10 mg/L): 0.34 cm
- Plant Height ([1]; 10 mg/L): 16.97 cm
- Total Root Count ([1]; 10 mg/L): 8.0 count/plant
- Dry Matter Mass of Rice, Root System ([1]; 20 mg/L): 3.8 mg/plant
- Dry Matter Mass of Rice, Shoot Part ([1]; 20 mg/L): 22.0 mg/plant
- Dry Matter Mass of Rice, Total ([1]; 20 mg/L): 25.8 mg/plant
- Leaf Area ([1]; 20 mg/L): 3.16 cm^2
- Leaf Length ([1]; 20 mg/L): 11.08 cm
- Leaf Width ([1]; 20 mg/L): 0.34 cm
- Plant Height ([1]; 20 mg/L): 16.13 cm
- Total Root Count ([1]; 20 mg/L): 8.7 count/plant
- Dry Matter Mass of Rice, Root System ([1]; 50 mg/L): 3.0 mg/plant
- Dry Matter Mass of Rice, Shoot Part ([1]; 50 mg/L): 19.7 mg/plant
- Dry Matter Mass of Rice, Total ([1]; 50 mg/L): 22.7 mg/plant
- Leaf Area ([1]; 50 mg/L): 3.01 cm^2
- Leaf Length ([1]; 50 mg/L): 9.23 cm
- Leaf Width ([1]; 50 mg/L): 0.39 cm
- Plant Height ([1]; 50 mg/L): 14.15 cm
- Total Root Count ([1]; 50 mg/L): 9.3 count/plant
- increase of leaf area ([1]; 5-50 mg/L, average): 59.6%
- increase of leaf length ([1]; 5-50 mg/L, average): 33.9%
- increase of leaf width ([1]; 5-50 mg/L, average): 19.6%
- increase of rice plant height ([1]; 5-50 mg/L, average): 31.5%
- increase of total root count ([1]; 5-50 mg/L, average): 47.8%
